The nature of this data set: Solubility in toluene. Type of data set: physicochemical. The conditions noted are these: 5-level grade A-E. On the procedure:
Each of the compounds of the present invention or comparative compounds (2% by mass, 1% by mass, 0.5% by mass, or 0.1% by mass each) was mixed with toluene (1 mL), heated to 100° C., and then left to stand for 30 minutes at room temperature. […] For practical use, the compound needs to be evaluated to be A, B, C, or D. The compound preferably needs to be evaluated to be A, B, or C, more preferably needs to be evaluated to be A or B, and particularly preferably needs to be evaluated to be A.
E: Precipitation occurred at 0.1% by mass.
Regarding `CCCc1ccc2c(c1)sc1c2ccc2c3ccc(CCC)cc3sc21` [Compound example 1], the Solubility result is recorded as “B (Precipitation did not occur at 1% by mass but occurred at 2% by mass.)”. In the case of `CCCCCc1ccc2c(c1)sc1c2ccc2c3ccc(CCCCC)cc3sc21` [Compound example 3], the Solubility entry is given as “A (Precipitation did not occur at 2% by mass.)”.

Regarding `CCCCCCCCc1ccc2c(c1)sc1c2ccc2c3ccc(CCCCCCCC)cc3sc21` [Compound example 6], the Solubility entry is “A (Precipitation did not occur at 2% by mass.)”.

As for `CCCCCCCCCCCCc1ccc2c(c1)sc1c2ccc2c3ccc(CCCCCCCCCCCC)cc3sc21` [Compound example 10], the Solubility entry is on record as “A (Precipitation did not occur at 2% by mass.)”. Turning to `CCCCCCCCCCCCCCCCCCc1ccc2c(c1)sc1c2ccc2c3ccc(CCCCCCCCCCCCCCCCCC)cc3sc21` [Compound example 16], the Solubility result was “B (Precipitation did not occur at 1% by mass but occurred at 2% by mass.)”.

As to `CCCCCCCCc1ccc2cc3c(cc2c1)sc1c3ccc2c3cc4ccc(CCCCCCCC)cc4cc3sc21` [Compound example 20], the Solubility result was “B (Precipitation did not occur at 1% by mass but occurred at 2% by mass.)”. On to `CCCCCCCCCCCCc1ccc2cc3c(cc2c1)sc1c3ccc2c3cc4ccc(CCCCCCCCCCCC)cc4cc3sc21` [Compound example 24], for which the Solubility result is given as “B (Precipitation did not occur at 1% by mass but occurred at 2% by mass.)”. Take `CCCCCCCCc1ccc(-c2ccc3c(c2)sc2c3ccc3c4ccc(-c5ccc(CCCCCCCC)cc5)cc4sc32)cc1` [Compound example 34]: the Solubility result is reported as “B (Precipitation did not occur at 1% by mass but occurred at 2% by mass.)”.

As to `CCCCCCCCc1ccc(-c2ccc3c(c2)sc2c3ccc3c4ccc(-c5ccc(CCCCCCCC)s5)cc4sc32)s1` [Compound example 62], the Solubility entry is given as “B (Precipitation did not occur at 1% by mass but occurred at 2% by mass.)”. Next, `CCCCCCCC/C=C/c1ccc2c(c1)sc1c2ccc2c3ccc(/C=C/CCCCCCCC)cc3sc21` [Compound example 298]: “B (Precipitation did not occur at 1% by mass but occurred at 2% by mass.)”; `CCCCCCC#Cc1ccc2c(c1)sc1c2ccc2c3ccc(C#CCCCCCC)cc3sc21` [Compound example 310]: “B (Precipitation did not occur at 1% by mass but occurred at 2% by mass.)”. Next, `CCCCCCCCOc1ccc2c(c1)sc1c2ccc2c3ccc(OCCCCCCCC)cc3sc21` [Compound example 326]: “B (Precipitation did not occur at 1% by mass but occurred at 2% by mass.)”.

Turning to `CCCCCCCCCCCCc1ccc2cc3c(cc2c1)sc1c3ccc2c3ccc(CCCCCCCCCCCC)cc3sc21` [Compound example 344], the Solubility entry was “B (Precipitation did not occur at 1% by mass but occurred at 2% by mass.)”. Next, `CCCCCCCCCCCCc1ccc2c(c1)sc1c2ccc2c3ccccc3sc21` [Compound example 358]: “B (Precipitation did not occur at 1% by mass but occurred at 2% by mass.)”; `CCCCCCCCCCCCc1ccc(-c2ccc3c(c2)sc2c3ccc3c4ccccc4sc32)cc1` [Compound example 372]: “B (Precipitation did not occur at 1% by mass but occurred at 2% by mass.)”. Take `CCCCCCCCCCCCc1ccc(-c2ccc3c(c2)sc2c3ccc3c4ccccc4sc32)s1` [Compound example 386]: the Solubility result is “B (Precipitation did not occur at 1% by mass but occurred at 2% by mass.)”.

Turning to `CCCCCCCCc1ccc2sc3c(ccc4c5cc(CCCCCCCC)ccc5sc43)c2c1` [Compound example 396], the Solubility entry is on record as “B (Precipitation did not occur at 1% by mass but occurred at 2% by mass.)”. Next, `CCCCC(CC)Cc1ccc2c(c1)sc1c2ccc2c3ccc(CC(CC)CCCC)cc3sc21` (stereo not shown) [Compound example 407]: “A (Precipitation did not occur at 2% by mass.)”; `CCCCCCCCc1ccc2c(c1)oc1c2ccc2c3ccc(CCCCCCCC)cc3oc21` [Compound example 416]: “C (Precipitation did not occur at 0.5% by mass but occurred at 1% by mass.)”. In the case of `C[Si](C)(C)C#Cc1c(C#C[Si](C)(C)C)c2c3ccc(-c4cccs4)cc3sc2c2sc3cc(-c4cccs4)ccc3c12` [Compound example 427], the Solubility entry is “D (Precipitation did not occur at 0.1% by mass but occurred at 0.5% by mass.)”.

For the compound `c1ccc2c(c1)sc1c2ccc2c3ccccc3sc21` [comparative compound 1, reference compound], the Solubility result is on record as “E (Precipitation occurred at 0.1% by mass.)”. On to `Cc1ccc2c(c1)sc1c2ccc2c3ccc(C)cc3sc21` [comparative compound 2, reference compound], for which the Solubility entry was “E (Precipitation occurred at 0.1% by mass.)”. As to `c1ccc2c(c1)sc1c2ccc2c3cccc(-c4ccc5c6ccccc6c6ccccc6c5c4)c3sc21` [comparative compound 6, reference compound], the Solubility entry was “E (Precipitation occurred at 0.1% by mass.)”. Next, `c1ccc(-c2cccc(-c3ccc4sc5c(ccc6c7cc(-c8cccc(-c9ccccc9)c8)ccc7sc65)c4c3)c2)cc1` [compound 3, reference compound]: “E (Precipitation occurred at 0.1% by mass.)”; `c1ccc(-c2ccc3sc4c5sc6ccc(-c7ccccc7)cc6c5c(-c5ccccc5)c(-c5ccccc5)c4c3c2)cc1` [compound 4, reference compound]: “E (Precipitation occurred at 0.1% by mass.)”.

Source of the values: patent US20160343958A1, “ORGANIC TRANSISTOR, COMPOUND, ORGANIC SEMICONDUCTOR MATERIAL FOR NON-LIGHT-EMITTING ORGANIC SEMICONDUCTOR DEVICE, MATERIAL FOR ORGANIC TRANSISTOR, COATING SOLUTION FOR NON-LIGHT-EMITTING ORGANIC SEMICONDUCTOR DEVICE, AND ORGANIC SEMICONDUCTOR FILM FOR NON-LIGHT-EMITTING ORGANIC SEMICONDUCTOR DEVICE” (FUJIFILM Corporation, priority 2014, published 2016).
